By melting point is commonly meant the temperature of the solid-liquid transition.

Data set [1] concerns AMPA receptor. The data set is described as follows: steady-state current induced by glutamate in cortical neurons in primary culture. The format is cell-based, rat. The settings on record: 300 μM glutamate on cultured neurons. The procedure: (§1) The physiological effects of invention compounds were tested in vitro on primary cultures of rat cortical neurons as described by Hamill, O P, et al. in Pflügers Arch 391: 85-100 (1981) or on slices of rat hippocampus according to the following procedure. Excitatory responses (field EPSPs) were measured in hippocampal slices, which were maintained in a recording chamber continuously perfused with artificial cerebrospinal fluid (ACSF). During a 15-30 minute interval, the perfusion medium was switched to one containing various concentrations of the test compounds. Responses collected immediately before and at the end of drug perfusion were superimposed in order to calculate the percent increase in EPSP amplitude.

Data set [2] has as its system AMPA receptors. The data set is described as follows: field EPSP amplitude in field CA1 of rat hippocampal slice. The data set is classed as cell-based. The settings on record: rat hippocampal slice.
Text: The field EPSP, (excitatory post-synaptic potential) recorded in field CA1 after stimulation of CA3 axons is known to be mediated by AMPA receptors, which are present in the synapses (Kessler et al., Brain Res. 560: 337-341 (1991)). Drugs that selectively block the receptor selectively block the field EPSP (Muller et al., Science, supra). […] These effects are mirrored in the field EPSP (see, for example, Staubli et al., Psychobiology, supra; Xiao et al., Hippocampus, supra; Staubli et al., Hippocampus 2: 4958 (1992)).
To obtain the data shown in Table I, a bipolar nichrome stimulating electrode was positioned in the dendritic layer (stratum radiatum) of the hippocampal subfield CA1 close to the border of subfield CA3, as described in Example 64. Current pulses (0.1 msec) through the stimulating electrode activate a population of the Schaffer-commissural (SC) fibers, which arise from neurons in the subdivision CA3 and terminate in synapses on the dendrites of CA1 neurons. Activation of these synapses causes them to release the transmitter glutamate. Glutamate binds to post-synaptic AMPA receptors, which then transiently open an associated ion channel and permit a sodium current to enter the postsynaptic cell. This current results in a voltage in the extracellular space (the field EPSP), which is recorded by a high impedance recording electrode positioned in the middle of the stratum radiatum of CA1.
The intensity of the stimulation current was adjusted to produce half-maximal EPSPs (typically about 1.5-2.0 mV). Paired stimulation pulses were given every 40 sec with an interpulse interval of 200 msec, as described further in Example 64.
Hippocampal slices were maintained in a recording chamber continuously perfused with artificial cerebrospinal fluid (ACSF). During 15-30 minute intervals, the perfusion medium was switched to one containing various concentrations of the test compounds. Responses collected immediately before and at the end of drug perfusion were superimposed in order to calculate the percent increase in EPSP amplitude.
as §1
To conduct these tests, the hippocampus was removed from anesthetized, 2 month old Sprague-Dawley rats and in vitro slices (400 μm thick) were prepared and maintained in an interface chamber at 35° C. using conventional techniques [see, for example, Dunwiddie and Lynch, J. Physiol. 276: 353-367 (1978)]. The chamber was constantly perfused at 0.5 mL/min with ACSF containing (in mM): NaCl 124, KCl 3, KH2PO4 1.25, MgSO4 2.5, CaCl2 3.4, NaHCO3 26, glucose 10 and L-ascorbate 2. A bipolar nichrome stimulating electrode was positioned in the dendritic layer (stratum radiatum) of the hippocampal subfield CA1 close to the border of subfield CA3.
Current pulses (0.1 msec) through the stimulating electrode activate a population of the Schaffer-commissural (SC) fibers, which arise from neurons in the subdivision CA3 and terminate in synapses on the dendrites of CA1 neurons. Activation of these synapses causes them to release the transmitter glutamate. Glutamate binds to the post-synaptic AMPA receptors, which then transiently open an associated ion channel and permit a sodium current to enter the postsynaptic cell. […]

Where only a bound is given, the exact number is not on record here.

In turn, `O=C1CCCN1CCCN1COc2cc3c(cc2C1=O)OC1CCCN1C3=O` (racemic) [Example 27, (R,S)-3-[3-(2-oxopyrrolidinyl)propyl]-2H,6aH-pyrrolidino[2″,1″-3′,2′]1,3-oxazino[5′,6′-4,5]benzo[e]1,3-oxazaperhydroine-4,10-dione] displayed a melting point of 189 to 190 °C. Further, the “EC2X: concentration of modulator required to double the steady state current” value (shortened to “EC2X: concentration”) in data set [1] turned out to be 1 µM. The “AMP: concentration of modulator that increases the amplitude of the fEPSP by 10%” value in data set [2] came out at 10 µM. Take `O=C1c2cc3c(cc2OCC1CO)C(=O)N1CCCC1O3` [Example 20, (R,S),(R,S)-3-(hydroxymethyl)-6aH-chromano[7,6-e]pyrrolidino[2,1-b]1,3-oxazine-4,10-dione]: the melting point is 189 to 190 °C. `O=C1c2cc3c(cc2OC2CCCN12)C(=O)N1OCCC1O3` [Example 46, (R,S), (R,S)-2H,3H,3aH,9aH--1,2-oxazolidino[3,2-b]pyrrolidino[2″,1″-3′,2′](1,3-oxazino)[5′,6′-5,4]benzo[e]1,3-oxazaperhydroine-6,12-dione]: the “EC2X: concentration” value in data set [1] amounted to 2.4 µM. The “AMP: concentration of modulator that increases the amplitude of the fEPSP by 10%” value in data set [2] came to 3 µM. On the same counts, the results for `O=C1c2cc3c(cc2OCN1Cc1ccc2c(c1)OCO2)C(=O)N1CCCC1O3` (racemic) [Example 28, (R,S)-3-(2H-benzo[d]1,3-dioxolen-5-ylmethyl)-2H,6aH-pyrrolidino[2″,1″-3′,2′]1,3-oxazino[5′,6′-4,5]benzo[e]1,3-oxazaperhydroine-4,10-dione] are 6 µM and 10 µM. In the case of `CCCN1COc2cc3c(cc2C1=O)OC1CCCN1C3=O` (racemic) [Example 24, (R,S)-3-propyl-2H,6aH-pyrrolidino[2″,1″-3′,2′]1,3-oxazino[5′,6′-4,5]benzo[e]1,3-oxazaperhydroine-4,10-dione], the melting point was 153 to 154 °C. The same measure, in the same setting: the figure for `O=C1c2cc3c(cc2OCN1CC(F)(F)F)C(=O)N1CCCC1O3` (racemic) [Example 29, (R,S)-3-(2,2,2-trifluoroethyl)-2H,6aH-pyrrolidino[2″,1″-3′,2′]1,3-oxazino[5′,6′-4,5]benzo[e]1,3-oxazaperhydroine-4,10-dione] is 179 to 180 °C.

For the molecule `O=C1c2cc3c(cc2OC2CCCN12)C(=O)N1CCOC1O3` [Example 11, (R,S), (R,S)-2H,3H,12aH,6aH-1,3-oxazolidino[2,3-b]pyrrolidino[2″,1″-2′,3′](1,3-oxazino)[5′,6′-2,1]benzo[4,5-e]1,3-oxazaperhydroine-4,10-dione], the “EC2X: concentration” value in data set [1] amounted to 0.09 µM. For the same molecule, in data set [2], the “AMP: concentration of modulator that increases the amplitude of the fEPSP by 10%” value was 1 µM. For `O=C1c2cc3c(cc2OCN1CCCN1CCOCC1)C(=O)N1CCCC1O3` (racemic) [Example 32, (R,S)-3-(3-morpholin-4-ylpropyl)-2H,6aH-pyrrolidino [2″,1″-3′,2′]1,3-oxazino[5′,6′-4,5]benzo[e]1,3-oxazaperhydroine-4,10-dione], the melting point is 153 to 155 °C. Still for that read-out and setting: the figure for `CC(C)N1COc2cc3c(cc2C1=O)OC1CCCN1C3=O` (racemic) [Example 25, (R,S)-3-(methylethyl)-2H,6aH-pyrrolidino[2″,1″-3′,2′]1,3-oxazino[5′,6′-4,5]benzo[e]1,3-oxazaperhydroine-4,10-dione] is 204 to 205 °C. Take `CCN1COc2cc(C(=O)C3CCCCC3)ccc2C1=O` [Example 38, 7-(cyclohexylcarbonyl)-3-ethyl-2H-benzo[e]1,3-oxazaperhydroin-4-one]: the “EC2X: concentration” value in data set [1] came out at 15 µM. Besides, the “AMP: concentration of modulator that increases the amplitude of the fEPSP by 10%” value in data set [2] was determined as 30 µM. The molecule `COC(=O)CN1COc2cc3c(cc2C1=O)OC1CCCN1C3=O` (racemic) [Example 33, (R,S)-methyl 2-(4,10-dioxo-2H,6aH-pyrrolidino[2″,1″-3′,2′]1,3-oxazino[5′,6′-4,5]benzo[e]1,3-oxazaperhydroin-3-yl)acetate] showed a melting point of 161 to 162 °C. With `CCN1COc2cc3c(cc2C1=O)OC1CCCN1C3=O` (racemic) [Example 23, (R,S)-3-ethyl-2H,6aH-pyrrolidino[2″,1″-3′,2′]1,3-oxazino[5′,6′-4,5]benzo[e]1,3-oxazaperhydroine-4,10-dione], the melting point lay in the range of 197 to 198 °C. In the case of `O=C1c2cc3nc4n(c(=O)c3cc2OC2CCCN12)CCC4` (racemic) [Example 6, (R,S)-6a-hydro-3aH-pyrrolidino[2,1-b]pyrrolidino[2′,1′-2,3]quinazolino[7,6-e]1,3-oxazaperhydroine-6,12-dione], the “EC2X: concentration” value in data set [1] came to 1.4 µM. Also, the “AMP: concentration of modulator that increases the amplitude of the fEPSP by 10%” value in data set [2] was found to be 100 µM. As to `O=C(c1ccc2c(c1)OC1CCCN1C2=O)N1CCCCC1` (racemic) [Example 5, (R,S)-6-(Piperidylcarbonyl)-3aH-benzo[e]pyrrolidino[2,1-b]1,3-oxazaperhydroin-9-one], the “EC2X: concentration” value in data set [1] was 2 µM. Moreover, the “AMP: concentration of modulator that increases the amplitude of the fEPSP by 10%” value in data set [2] came to 10 µM. On the same counts, the results for `CC1CCN(C(=O)c2ccc3c(c2)OC2CCCN2C3=O)CC1` (racemic) [Example 18, (R,S)-6-[(4-methylpiperidyl)carbonyl]-3aH-benzo[e]pyrrolidino[2,1-b]1,3-oxazin-9-one] are 4 µM and 100 µM. Turning to `O=C(CN1COc2cc3c(cc2C1=O)OC1CCCN1C3=O)N1CCCC1` (racemic) [Example 34, (R,S)-3-(2-oxo-2-pyrrolidinylethyl)-2H,6aH-pyrrolidin[2″,1″-3′,2′]1,3-oxazino[5′,6′-4,5]benzo[e]1,3-oxazaperhydroine-4,10-dione], the melting point lay in the range of 257 to 259 °C.

For the molecule `O=C1c2cc3c(cc2OCN1C1CCCC1)C(=O)N1CCCC1O3` (racemic) [Example 26, (R,S)-3-cyclopentyl-2H,6aH-pyrrolidino[2″,1″-3′,2′]1,3-oxazino[5′,6′-4,5]benzo[e]1,3-oxazaperhydroine-4,10-dione], the melting point was 184 to 188 °C. On the same count and under the same terms, the figure for `O=C1c2cc3c(cc2OCN1CCO)C(=O)N(CCO)CO3` [Example 59, 3,8-bis(2-hydroxyethyl)-2H,7H-1,3-oxazaperhydroino[5′,6′-4,5]benzo[e]1,3-oxazine-4,9-dione] is 237 to 238 °C. Still for that read-out and setting: the figure for `O=C1NCOc2cc3c(cc21)OC1CCCN1C3=O` (racemic) [Example 58, (R,S)-2H,3H,6aH-pyrrolidino[2″,1″-3′,2′]1,3-oxazino[5′,6′-4,5]benzo[e]1,3-oxazaperhydroine-4,10-dione] is 270 to 275 °C (dec.). `O=C1c2cc3c(cc2OC2CCCN12)OC1CCCN1C3=O` [Example 2, (R,S), (R,S)-3aH,6aH-pyrrolidino[2,1-b]pyrrolidino[2″,1″-3′,2′](1,3-oxazino)[6′,5′-2,1]benzo[4,5-e]1,3-oxazaperhydroine-10,12-dione]: the “EC2X: concentration” value in data set [1] turned out to be 2.6 µM. Also, the “AMP: concentration of modulator that increases the amplitude of the fEPSP by 10%” value in data set [2] is >10 µM.
